# Experimental data from patent US8623909B2, “Prophylactic/therapeutic agents for lifestyle-related diseases” (priority 2008, dated 2014).
# Marks after values point to notes of the source that are not given here.
# Tests used:
# [1] = test system: B6 mice on high-fat diet; assay: High-fat diet B6 mice, 16 weeks (body weight, serum glucose, serum insulin, food intake, visceral fat); assay type: in vivo, mouse; conditions: 10 mg/kg s.c. every other day
# Description: (§1) 9-week-old B6 mice were divided into a control group, high-fat diet group and high-fat diet+compound of formula (Ia) group of 10 animals each, and housed and observed for 16 weeks. During this period, the compound of formula (Ia) was subcutaneously injected at 10 mg/kg every other day, body weights were measured once a week, and food intake was measured once every 4 weeks.
# After 16 weeks, the body weights, bone mineral densities, fat distributions and exercise levels of the mice were measured, followed by collecting blood samples and finally sacrificing the animals and collecting their organs. The average value of body weight, serum glucose concentration and serum insulin concentration of each group after 16 weeks are shown in the following Table 17.
# [2] = target: T1, GFP-AR (Homo sapiens, UniProt P10275); assay: Subnuclear localization of GFP-AR in NIH-3T3-L1 cells; assay type: cell-based, mouse; parameters: expressed in transfected cells; host or cells: NIH-3T3-L1 cells; conditions: 10^−5 M, FIG. 4
# T1 sequence (P10275 1-920): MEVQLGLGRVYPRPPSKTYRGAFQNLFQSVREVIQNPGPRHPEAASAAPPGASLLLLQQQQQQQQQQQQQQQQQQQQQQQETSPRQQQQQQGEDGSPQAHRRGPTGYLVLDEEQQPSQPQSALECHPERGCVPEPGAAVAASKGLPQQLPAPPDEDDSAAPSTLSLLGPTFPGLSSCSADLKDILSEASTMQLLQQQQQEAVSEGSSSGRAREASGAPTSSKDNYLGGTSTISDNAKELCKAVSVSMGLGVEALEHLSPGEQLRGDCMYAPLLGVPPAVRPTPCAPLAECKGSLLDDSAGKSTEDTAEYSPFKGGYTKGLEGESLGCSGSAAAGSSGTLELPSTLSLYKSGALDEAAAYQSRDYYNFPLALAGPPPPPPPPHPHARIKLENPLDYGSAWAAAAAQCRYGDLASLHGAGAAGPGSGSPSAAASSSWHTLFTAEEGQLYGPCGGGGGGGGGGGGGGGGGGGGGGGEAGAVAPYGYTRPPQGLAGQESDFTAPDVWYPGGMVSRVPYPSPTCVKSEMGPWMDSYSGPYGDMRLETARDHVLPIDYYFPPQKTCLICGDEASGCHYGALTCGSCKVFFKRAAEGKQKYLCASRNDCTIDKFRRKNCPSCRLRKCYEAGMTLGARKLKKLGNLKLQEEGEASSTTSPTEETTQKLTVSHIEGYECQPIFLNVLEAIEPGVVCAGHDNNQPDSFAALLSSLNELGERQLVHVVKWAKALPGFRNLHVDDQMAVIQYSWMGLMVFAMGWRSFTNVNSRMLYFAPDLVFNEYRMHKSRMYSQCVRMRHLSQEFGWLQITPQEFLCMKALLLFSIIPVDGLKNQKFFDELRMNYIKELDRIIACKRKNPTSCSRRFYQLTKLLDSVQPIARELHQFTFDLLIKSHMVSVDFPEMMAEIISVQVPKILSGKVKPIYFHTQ
# [3] = test system: UCP-1 mRNA in NIH-3T3-L1 cells; assay: UCP-1 mRNA expression level in NIH-3T3-L1 cells (real-time PCR); assay type: cell-based, mouse; conditions: 10^−5M, 24 hours, control (DMSO) 1.0
# Description: (§2) 1) Extraction of Total RNA
# (§3) After respectively culturing the LNCaP cells and NIH-3T3-L1 cells co-transfected in 1) to 3) above in 6-well plates, the cells were cultured for 24 hours in EMEM or RPMI 1640 containing 10% fetal calf serum treated with dextran-charcoal and a test compound (dissolved in a small amount of DMSO). Subsequently, total RNA was respectively extracted using Isogen (Wako Pure Chemical Industries).
# (§4) 5 μg aliquots of each total RNA obtained in 1) above were reverse-transcribed to first strand cDNA using a Superscript III Kit (Invitrogen) and brought to a final volume of 20 μL. Real-time PCR was carried out using LightCycler FastStart DNA Master SYBR Green I (Roche Diagnostic) in order to quantify expression of PSA mRNA in LNCaP cells and UCP-1 mRNA in NIH-3T3-L1 cells. PCR was carried out under the following conditions in 20 μL of reaction mixture: 50 cycles consisting of denaturing for 3 seconds at 95° C., annealing for 10 seconds at 60° C. and elongating for 25 seconds at 72° C. β-actin mRNA was also simultaneously amplified for use as an internal standard. Real-time PCR value for each transcription product were calculated as a relative ratio to β-actin.
# [4] = test system: PSA mRNA in LNCaP cells; assay: PSA mRNA expression level in LNCaP cells (real-time PCR); assay type: cell-based, human; conditions: 10^−5M, 24 hours, control (DMSO) 1.0
# Description: as §2, §3, §4
# [5] = target: T1, GFP-AR; assay: Subnuclear localization of GFP-AR in LNCaP cells; assay type: cell-based; parameters: expressed in transfected cells; host or cells: LNCaP cells; conditions: 10^−5 M, observed 3 hours later, FIG. 2
# [6] = test system: B6 mice on high-fat diet; assay: Glucose tolerance test in high-fat diet B6 mice; assay type: in vivo, mouse; conditions: high-fat diet mice after 16 weeks, glucose 1 g/kg
# Description: as §1
# In addition, glucose tolerance tests were also carried out on the mice after housing for 16 weeks. The mice were divided into groups of 5 mice each, injected at 1 g/kg, and glucose value was then measured over time.
compound,measurement,setting,value
CC(=O)[C@H]1CCC2C3CCc4c(C)cccc4C3CC[C@@]21C (stereo partly shown) [Compound of formula (Ia)],Body weight versus high-fat diet group (in words),[1]; 16 weeks,significantly lower than in the high-fat diet group
same,Increase of serum glucose and serum insulin concentrations due to the high-fat diet (in words),[1]; 16 weeks,significantly inhibited
same,Accumulation of visceral fat (in words),"[1]; 16 weeks, FIG. 6",roughly the same as that of the rat of the ordinary diet group
same,Serum insulin concentration (average),"[1]; after 16 weeks, high-fat diet alone 0.46, ordinary diet 0.13",0.27^# ng/mL
same,Body weight (average),"[1]; after 16 weeks, high-fat diet alone 36.6, ordinary diet 30.7",34.9^### g
same,Serum glucose concentration (average),"[1]; after 16 weeks, high-fat diet alone 113.2, ordinary diet 75",82.2^## mg/dL
same,GFP-AR nuclear translocation and foci (dots) formation,[2],formed the subnuclear foci (dots)
same,UCP-1 mRNA (relative ratio to β-actin mRNA),[3],2.1*
same,PSA mRNA (relative ratio to β-actin mRNA),[4],0.8
same,GFP-AR nuclear translocation and foci (dots) formation,[5],clear foci (dots) were not formed
same,Glucose value in glucose tolerance test,[6]; 0 min after injection,82.2^## mg/dL
same,Glucose value in glucose tolerance test,[6]; 15 min after injection,293.6 mg/dL
same,Glucose value in glucose tolerance test,[6]; 30 min after injection,327.6* mg/dL
same,Glucose value in glucose tolerance test,[6]; 60 min after injection,249.4 mg/dL
same,Glucose value in glucose tolerance test,[6]; 90 min after injection,262.0* mg/dL
same,Glucose value in glucose tolerance test,[6]; 120 min after injection,163.0 mg/dL
